Data: USRE49080E1, “Glycoside derivatives and uses thereof” (Novartis AG, priority 2009, dated 2022)

Assays:
[1] = biological target: human sodium glucose co-transporter 2 (Homo sapiens (Human), UniProt P31639); assay: SGLT-2 assay: 14C-AMG uptake in CHO-hSGLT2 or HEK-hSGLT2 cells; type: cell-based; conditions: n = 1-4, cells stably transfected with hSGLT2, read-out: SGLT2 IC50 nM (n = 1-4)
Method: These cell lines transport 14 C-labelled alpha-methyl-glucopyranoside (14 C-AMG, Amersham) into the interior of the cell in sodium-dependent manner.
(§1) The SGLT-2 assay is carried out as follows: CHO-hSGLT2 cells are cultivated in Ham's F12 Medium (BioWhittaker) with 10% foetal calf serum and 250 μg/mL zeocin (Invitrogen), and HEK293-hSGLT2 cells are cultivated in DMEM medium with 10% foetal calf serum and 250 μg/mL zeocin (Invitrogen). The cells are detached from the culture flasks by washing twice with PBS and subsequently treating with trypsin/EDTA. After the addition of cell culture medium the cells are centrifuged, resuspended in culture medium and counted in a Casy cell counter. Then 40,000 cells per well are seeded into a white, 96-well plate coated with poly-D-lysine and incubated overnight at 37° C., 5% CO2. The cells are washed twice with 250 μl of assay buffer (Hanks Balanced Salt Solution, 137 mM NaCl, 5.4 mM KCl, 2.8 mM CaCl2, 1.2 mM MgSO4 and 10 mM HEPES (pH 7.4), 50 μg/mL of gentamycin). 250 μl of assay buffer and 5 μl of test compound are then added to each well and the plate is incubated for a further 15 minutes in the incubator. 5 μl of 10% DMSO are used as the negative control. The reaction is started by adding 5 μl of 14 C-AMG (0.05 μCi) to each well. After 2 hours' incubation at 37° C., 5% CO2, the cells are washed again with 250 μl of PBS […] and then lysed by the addition of 25 μl of 0.1 N NaOH (5 min. at 37° C.). 200 μl of MicroScint20 (Packard) are added to each well and incubation is continued for a further 20 min at 37° C. After this incubation the radioactivity of the 14 C-AMG absorbed is measured in a Topcount (Packard) using a 14 C scintillation program.

human SGLT1 = human SGLT1 (Homo sapiens (Human), UniProt P13866); assay: SGLT1 assay: analogous test with hSGLT1 cDNA expressed in CHO-K1 or HEK293 cells; type: cell-based; conditions: n = 1-4; 14C-AMG uptake, cells expressing hSGLT1
Chain of human SGLT1 (P13866 whole entry): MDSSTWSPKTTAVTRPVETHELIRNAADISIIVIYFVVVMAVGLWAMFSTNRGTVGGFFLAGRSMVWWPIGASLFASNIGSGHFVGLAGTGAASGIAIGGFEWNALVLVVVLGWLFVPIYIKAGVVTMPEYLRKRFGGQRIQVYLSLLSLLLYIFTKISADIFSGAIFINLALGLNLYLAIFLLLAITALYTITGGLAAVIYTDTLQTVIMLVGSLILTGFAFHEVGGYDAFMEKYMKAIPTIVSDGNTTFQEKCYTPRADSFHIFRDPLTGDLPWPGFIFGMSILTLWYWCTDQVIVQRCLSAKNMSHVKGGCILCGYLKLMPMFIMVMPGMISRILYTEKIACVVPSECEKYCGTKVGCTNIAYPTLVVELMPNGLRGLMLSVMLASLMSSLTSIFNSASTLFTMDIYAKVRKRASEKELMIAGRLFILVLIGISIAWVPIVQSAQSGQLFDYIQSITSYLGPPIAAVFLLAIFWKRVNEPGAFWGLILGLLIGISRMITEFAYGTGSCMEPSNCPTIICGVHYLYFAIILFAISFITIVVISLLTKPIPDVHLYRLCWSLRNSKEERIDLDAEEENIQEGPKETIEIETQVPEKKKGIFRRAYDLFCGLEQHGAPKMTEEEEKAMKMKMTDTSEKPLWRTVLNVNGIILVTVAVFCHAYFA
Method: as §1
To determine the selectivity with respect to human SGLT1 an analogous test is set up in which the cDNA for hSGLTI (Genbank Ace. No. NM000343) instead of hSGLT2 cDNA is expressed in CHO-K1 or HEK293 cells.

Chain of human sodium glucose co-transporter 2 (P31639 whole entry): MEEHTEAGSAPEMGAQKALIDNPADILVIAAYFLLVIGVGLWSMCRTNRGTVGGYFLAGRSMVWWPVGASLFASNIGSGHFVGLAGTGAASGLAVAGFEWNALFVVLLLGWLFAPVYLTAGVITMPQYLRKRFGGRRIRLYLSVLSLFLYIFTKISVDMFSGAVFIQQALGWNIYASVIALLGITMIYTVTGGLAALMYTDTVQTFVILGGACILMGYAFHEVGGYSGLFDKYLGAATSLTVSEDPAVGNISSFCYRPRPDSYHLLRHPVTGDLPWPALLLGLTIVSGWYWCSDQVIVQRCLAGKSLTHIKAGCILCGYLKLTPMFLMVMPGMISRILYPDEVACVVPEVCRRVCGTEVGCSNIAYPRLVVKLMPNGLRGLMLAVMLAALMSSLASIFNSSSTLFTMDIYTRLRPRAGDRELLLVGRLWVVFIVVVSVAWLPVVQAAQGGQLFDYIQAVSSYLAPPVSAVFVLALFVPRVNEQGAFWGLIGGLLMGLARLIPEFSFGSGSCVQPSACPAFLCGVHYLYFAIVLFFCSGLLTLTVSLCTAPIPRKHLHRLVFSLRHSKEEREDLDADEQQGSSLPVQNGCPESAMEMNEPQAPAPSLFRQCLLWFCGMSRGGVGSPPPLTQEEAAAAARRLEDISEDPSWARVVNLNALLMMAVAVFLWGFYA

Row | SMILES | IC50 [1] [nM] | IC50 (human SGLT1) [nM]
1 | CN1CCOc2cc(Cc3cc([C@@H]4O[C@H](CO)[C@@H](O)[C@H](O)[C@H]4O)ccc3Cl)ccc21 [Example 1, (2S,3R,4R,5S,6R)-2-[4-Chloro-3-(4-methyl-3,4-dihydro-2H benzo[1,4]oxazin-7-ylmethyl)-phenyl]-6-hydroxymethyl-tetrahydro-pyran-3,4,5-triol] | 2.7 | 655
2 | CCN1CCOc2cc(Cc3cc([C@@H]4O[C@H](CO)[C@@H](O)[C@H](O)[C@H]4O)ccc3Cl)ccc21 [Example 2, (2S,3R,4R,5S,6R)-2-[4-Chloro-3-(4-ethyl-3,4-dihydro-2H-benzo[1,4]oxazin-7-ylmethyl)-phenyl]-6-hydroxymethyl-tetrahydro-pyran-3,4,5-triol] | 11.1 | 2500
3 | OC[C@H]1O[C@@H](c2ccc(Cl)c(Cc3ccc4c(c3)OCCN4C3CC3)c2)[C@H](O)[C@@H](O)[C@@H]1O [Example 3, (2S,3R,4R,5S,6R)-2-[4-Chloro-3-(4-cyclopropyl-3,4-dihydro-2Hbenzo[1,4]oxazin-7ylmethyl)-phenyl]-6-hydroxymethyltetrahydropyran3,4,5-triol] | 16 | –
4 | OC[C@H]1O[C@@H](c2ccc(Cl)c(Cc3ccc4c(c3)N(Cc3ccccc3)CCO4)c2)[C@H](O)[C@@H](O)[C@@H]1O [Example 4, (2S,3R,4R,5S,6R)-2-[3-(4-Benzyl-3,4-dihydro-2H-benzo[1,4]oxazin-6-ylmethyl)-4-chloro-phenyl]-6-hydroxymethyl-tetrahydro-pyran-3,4,5-triol] | 65 | –
5 | OC[C@H]1O[C@@H](c2ccc(Cl)c(Cc3ccc4c(c3)NCCO4)c2)[C@H](O)[C@@H](O)[C@@H]1O [Example 8, (2S,3R,4R,5S,6R)-2-[4-Chloro-3-(3,4-dihydro-2H-benzo[1,4]oxazin-6-ylmethyl)-phenyl]-6-hydroxymethyl-tetrahydro-pyran-3,4,5-triol] | 0.25 | 725
6 | CCN1CCOc2ccc(Cc3cc([C@@H]4O[C@H](CO)[C@@H](O)[C@H](O)[C@H]4O)ccc3Cl)cc21 [Example 9, (2S,3R,4R,5S,6R)-2-[4-Chloro-3-(4-ethyl-3,4-dihydro-2H-benzo[1,4]oxazin-6-ylmethyl)-phenyl]-6-hydroxymethyl-tetrahydro-pyran-3,4,5-triol] | 7.2 | –
7 | OC[C@H]1O[C@@H](c2ccc(Cl)c(Cc3ccc4c(c3)N(CC3CC3)CCO4)c2)[C@H](O)[C@@H](O)[C@@H]1O [Example 10, (2S,3R,4R,5S,6R)-2-[4-Chloro-3-(4-cyclopropylmethyl-3,4-dihydro-2H-benzo[1,4]oxazin-6-ylmethyl)-phenyl]-6-hydroxymethyl-tetrahydro-pyran-3,4,5-triol] | 18 | –
8 | COc1ccc(CN2CCCc3cc(Cc4cc([C@@H]5O[C@H](CO)[C@@H](O)[C@H](O)[C@H]5O)ccc4Cl)ccc32)cc1 [Example 14, (2S,3R,4R,5S,6R)-2-{4-Chloro-3-[1-(4-methoxy-benzyl)-1,2,3,4-tetrahydro-quinolin-6-ylmethyl]-phenyl}-6-hydroxymethyl-tetrahydro-pyran-3,4,5-triol] | 5.5 | 800
9 | OC[C@H]1O[C@@H](c2ccc(Cl)c(Cc3ccc4c(c3)CCCN4)c2)[C@H](O)[C@@H](O)[C@@H]1O [Example 15, (2S,3R,4R,5S,6R)-2-[4-Chloro-3-(1,2,3,4-tetrahydro-quinolin-6-ylmethyl)-phenyl]-6-hydroxymethyl-tetrahydro-pyran-3,4,5-triol] | 0.2 | 650
10 | OC[C@H]1O[C@@H](c2ccc(Cl)c(Cc3ccc4c(c3)NCCC4)c2)[C@H](O)[C@@H](O)[C@@H]1O [Example 16, (2S,3R,4R,5S,6R)-2-[4-Chloro-3-(1,2,3,4-tetrahydro-quinolin-7-ylmethyl)-phenyl]-6-hydroxymethyl-tetrahydro-pyran-3,4,5-triol] | 0.15 | 750
11 | OC[C@H]1O[C@@H](c2ccc(Cl)c(Cc3ccc4c(c3)CCN4)c2)[C@H](O)[C@@H](O)[C@@H]1O [Example 17, (2S,3R,4R,5S,6R)-2-[4-Chloro-3-(2,3-dihydro-1H-indol-5-ylmethyl)-phenyl]-6-hydroxymethyl-tetrahydro-pyran-3,4,5-triol] | 0.8 | 480
12 | CC1(C)CNc2cc(Cc3cc([C@@H]4O[C@H](CO)[C@@H](O)[C@H](O)[C@H]4O)ccc3Cl)ccc2O1 [Example 20, (2S,3R,4R,5S,6R)-2-[4-Chloro-3-(2,2-dimethyl-3,4-dihydro-2H-benzo[1,4]oxazin-6-ylmethyl)-phenyl]-6-hydroxymethyl-tetrahydro-pyran-3,4,5-triol] | 0.55 | > 3700
13 | OC[C@H]1O[C@@H](c2ccc(Cl)c(Cc3ccc4c(c3)CCCO4)c2)[C@H](O)[C@@H](O)[C@@H]1O [Example 21, (2S,3R,4R,5S,6R)-2-(4-Chloro-3-chroman-6-ylmethyl-phenyl)-6-hydroxymethyl-tetrahydro-pyran-3,4,5-triol] | 0.2 | 1100
14 | OC[C@H]1O[C@@H](c2ccc(Cl)c(Cc3ccc4c(c3)CCO4)c2)[C@H](O)[C@@H](O)[C@@H]1O [Example 22, (2S,3R,4R,5S,6R)-2-[4-Chloro-3-(2,3-dihydro-benzofuran-5-ylmethyl)-phenyl]-6-hydroxymethyl-tetrahydro-pyran-3,4,5-triol] | 0.4 | –
15 | OC[C@H]1O[C@@H](c2ccc(F)c(Cc3ccc4c(c3)NCCO4)c2)[C@H](O)[C@@H](O)[C@@H]1O [Example 24, (2S,3R,4R,5S,6R)-2-[3-(3,4-Dihydro-2H-benzo[1,4]oxazin-6-ylmethyl)-4-fluoro-phenyl]-6-hydroxymethyl-tetrahydro-pyran-3,4,5-triol] | 1.3 | 31000
16 | COc1ccc([C@@H]2O[C@H](CO)[C@@H](O)[C@H](O)[C@H]2O)cc1Cc1ccc2c(c1)OCCO2 [Example 25, (2S,3R,4R,5S,6R)-2-[3-(2,3-Dihydro-benzo[1,4]dioxin-6-ylmethyl)-4-methoxy-phenyl]-6-hydroxymethyl-tetrahydro-pyran-3,4,5-triol] | 1.5 | 40
17 | OC[C@H]1O[C@@H](c2ccc(Cl)c(Cc3ccc4c(c3)OCCN4)c2)[C@H](O)[C@@H](O)[C@@H]1O [Example 28, (2S,3R,4R,5S,6R)-2-[4-Chloro-3-(3,4-dihydro-2H-benzo[1,4]oxazin-7-ylmethyl)-phenyl]-6-hydroxymethyl-tetrahydro-pyran-3,4,5-triol] | 0.33 | 1000
18 | OC[C@H]1O[C@@H](c2ccc(Cl)c(Cc3ccc4c(c3)C3(CCO4)CC3)c2)[C@H](O)[C@@H](O)[C@@H]1O [Example 29, (2S,3R,4R,5S,6R)-2-[4-Chloro-3-(4,4-spiro-cyclopropyl-chroman-6-ylmethyl)-phenyl]-6-hydroxymethyl-tetrahydro-pyran-3,4,5-triol] | 84.5 | 7000
19 | OC[C@H]1O[C@@H](c2ccc(Cl)c(Cc3ccc4c(c3)C(O)CCO4)c2)[C@H](O)[C@@H](O)[C@@H]1O (stereo partly drawn) [Example 36, (2S,3R,4R,5S,6R)-2-[4-Chloro-3-(4-hydroxy-chroman-6-ylmethyl)-phenyl]-6-hydroxymethyl-tetrahydro-pyran-3,4,5-triol] | 28 | –
20 | OC[C@H]1O[C@@H](c2ccc(Cl)c(Cc3ccc4c(c3)CCC3(CCCC3)O4)c2)[C@H](O)[C@@H](O)[C@@H]1O [Example 38, (2S,3R,4R,5S,6R)-2-[4-Chloro-3-(spiro[chromane-2,1′-cyclopentane]-6-ylmethyl)phenyl]-6-(hydroxymethyl)tetrahydropyran-3,4,5-triol] | 14.4 | –
